Test results as given in patent publication US20250268826A1, “IONIZABLE LIPIDOID COMPOSITIONS AND THERAPEUTIC USES THEREOF” (Flagship Pioneering Innovations VII, LLC, priority 2023, published 2025).

Tests used:
Assay type in all cases: physicochemical
[1] = LNP size and polydispersity index (PDI) by dynamic light scattering (DLS)
[2] = LNP Zeta potential measured using a Zetasizer (Malvern); details: for Zeta potential (mV): LNP with hEPO mRNA, N:P ratio 6; for Zeta potential: hEPO mRNA
[3] = Encapsulation efficiency (EE %) by fluorescence based Ribogreen assay
[4] = Table 10, LNP with hEPO mRNA, Lipid:DSPC:Cholesterol:DMG-PEG2k 50:10:38.5:1.5 mol %, N:P ratio 6, DLS
[5] = Table 10, Lipid:DSPC:Cholesterol:DMG-PEG2k 50:10:38.5:1.5 mol %
[6] = Table 10, LNP with hEPO mRNA, Lipid:DSPC:Cholesterol:DMG-PEG2k 50:10:38.5:1.5 mol %, N:P ratio 6, Ribogreen assay
[7] = Table 1, LNP lipid:DSPC:Cholesterol:DMG-PEG2k 50:10:38.5:1.5 mol %, hEPO mRNA, N:P 6
[8] = Table 1, LNP lipid:DSPC:Cholesterol:DMG-PEG2k 50:10:38.5:1.5 mol %, N:P 6
[9] = Table 8, LNP 50:10:38.5:1.5 mol %, hEPO mRNA, N:P 6
[10] = Table 9, LNP 50:10:38.5:1.5 mol %, hEPO mRNA, N:P 6
[11] = Table 5, LNP 50:10:38.5:1.5 mol %, hEPO mRNA, N:P 6
[12] = Table 5, LNP Lipid:DSPC:Cholesterol:DMG-PEG2k 50:10:38.5:1.5 mol %, hEPO mRNA, N:P 6
[13] = Table 5, LNP 50:10:38.5:1.5 mol %, N:P 6
[14] = Table 11, LNP with hEPO mRNA, Lipid:DSPC:Cholesterol:DMG-PEG2k 50:10:38.5:1.5 mol % (ALC-0315: 46.3:9.4:42.7:1.6), N:P ratio 6, HEPES/sodium chloride/sucrose buffer, stored at −80C
[15] = Table 11, Lipid:DSPC:Cholesterol:DMG-PEG2k 50:10:38.5:1.5 mol % (ALC-0315: 46.3:9.4:42.7:1.6), HEPES/sodium chloride/sucrose buffer, stored at −80C
[16] = Table 3, LNP 50:10:38.5:1.5 mol %, hEPO mRNA, N:P 6
[17] = Table 4, LNP 40:10:48.5:1.5 mol %, hEPO mRNA, N:P 6
[18] = Table 4, LNP 40:10:48.5:1.5 mol %, hEPO mRNA, N:P 9
[19] = Table 4, LNP 40:10:48.5:1.5 mol %, hEPO mRNA, N:P 12
[20] = Table 4, LNP 50:10:38.5:1.5 mol %, hEPO mRNA, N:P 6
[21] = Table 4, LNP 50:10:38.5:1.5 mol %, hEPO mRNA, N:P 9
[22] = Table 4, LNP 50:10:38.5:1.5 mol %, hEPO mRNA, N:P 12
[23] = Table 4, LNP 60:0:38.5:1.5 mol %, hEPO mRNA, N:P 6
[24] = Table 4, LNP 60:0:38.5:1.5 mol %, hEPO mRNA, N:P 9
[25] = Table 4, LNP 60:0:38.5:1.5 mol %, hEPO mRNA, N:P 12
[26] = Table 5, LNP 60:0:38.5:1.5 mol %, hEPO mRNA, N:P 6

Q: With `CCCCCCCC/C=C\CCCCCCCC(=O)OCCN(CCOC(=O)C(CCCCCC)CCCCCCCC)C(=O)CCN1CCCCC1` (centres unmarked) [Compound 917h] as the molecule, how does the PDI [1, 4] read?
A: 0.137

Q: And the “Size (nm)” value [1, 4]?
A: 89.6 nm

Q: And the “Zeta potential (mV)” value [2, 5]?
A: −8.2 mV

Q: And the “Encapsulation Efficiency %” value [3, 6]?
A: 91.4%

Q: What does the source list for `CCCCCCCCCC(=O)OCCN(CCOC(=O)CCCCCCCCC)C(=O)C(N)CCCCN` (centres unmarked) [Compound 122]?
A: PDI [1, 7]: 0.259; Size [1, 7]: 71.8 nm; Zeta potential [2, 8]: 6.541 mV; Encapsulation Efficiency % [3, 7]: 94.2%

Q: Which PDI [1, 9] does the source give for `CCCCCCCCC(CCCCCC)C(=O)OCCN(CCOC(=O)C(CCCCCC)CCCCCCCC)C(=O)CCCN(CC)CC.Cl` (centres unmarked) [Compound 937] here?
A: 0.136

Q: What about the Size ([1]; Table 8, LNP Lipid:DSPC:Cholesterol:DMG-PEG2k 50:10:38.5:1.5 mol %, hEPO mRNA, N:P 6) of the same molecule?
A: 144 nm

Q: And the Zeta potential ([2]; Table 8, LNP 50:10:38.5:1.5 mol %, N:P 6)?
A: −9.2 mV

Q: What about the “Encapsulation Efficiency %” value [3, 9] of the same molecule?
A: 99.9%

Q: Which PDI [1, 10] does the source give for `CCCCCCCCC(CCCCCC)C(=O)OCCN(CCOC(=O)C(CCCCCC)CCCCCCCC)C(=O)CN(CC)CC.Cl` (centres unmarked) [Compound 967] here?
A: 0.101

Q: And the Size ([1]; Table 9, LNP Lipid:DSPC:Cholesterol:DMG-PEG2k 50:10:38.5:1.5 mol %, hEPO mRNA, N:P 6)?
A: 82.1 nm

Q: What about the Zeta potential ([2]; Table 9, LNP 50:10:38.5:1.5 mol %, N:P 6) of the same molecule?
A: −21.99 mV

Q: And the “Encapsulation Efficiency %” value [3, 10]?
A: 97.9%

Q: For `CCCCCC(CCCCC)C(=O)OCCN(CCOC(=O)C(CCCCC)CCCCC)C(=O)C(N)Cc1ccccc1` (centres unmarked) [Compound 615], which PDI [1, 11] is on record?
A: 0.408

Q: What about the Size [1, 12] of the same molecule?
A: 104.2 nm

Q: And the Zeta potential [2, 13]?
A: −11.83 mV

Q: And the “Encapsulation Efficiency %” value [3, 11]?
A: 98.7%

Q: For `CCCCCCCCCCCC(=O)OCCN(CCOC(=O)CCCCCCCCCCC)C(=O)C(C)N` (centres unmarked) [Compound 109], which PDI [1, 7] is on record?
A: 0.557

Q: What about the Size [1, 7] of the same molecule?
A: 90.7 nm

Q: And the Zeta potential [2, 8]?
A: 8.911 mV

Q: And the “Encapsulation Efficiency %” value [3, 7]?
A: 97.6%

Q: Which PDI [1, 14] does the source give for `CCCCCCCCC(CCCCCC)C(=O)OCCN(CCOC(=O)C(CCCCCC)CCCCCCCC)C(=O)C(C)CCNCC.Cl` (centres unmarked) [Compound 987e] here?
A: 0.110

Q: What about the “Size (nm)” value [1, 14] of the same molecule?
A: 70.5 nm

Q: What about the “Zeta potential (mV)” value [2, 15] of the same molecule?
A: 0.8 mV

Q: What about the “Encapsulation Efficiency %” value [3, 14] of the same molecule?
A: 99.4%

Q: What does the source list for `CCCCCCCCCC(CCCCCCCCC)C(=O)OCCN(CCOC(=O)C(CCCCCCCCC)CCCCCCCCC)C(=O)CCN(CC)CC` [Compound 917f]?
A: PDI [1, 4]: 0.314; Size (nm) [1, 4]: 51.5 nm; Zeta potential (mV) [2, 5]: −11.1 mV; Encapsulation Efficiency % [3, 6]: 91.9%

Q: Which results are given for `CCCCCCCCCC(=O)OCCN(CCOC(=O)CCCCCCCCC)C(=O)C(N)Cc1c[nH]cn1` (centres unmarked) [Compound 128]?
A: PDI [1, 7]: 0.058; Size [1, 7]: 77.8 nm; Zeta potential [2, 8]: 6.43 mV; Encapsulation Efficiency % [3, 7]: 95.2%

Q: For `CCCCCCCCC(CCCCCC)C(=O)OCCN(CCOC(=O)C(CCCCCC)CCCCCCCC)C(=O)C(N)Cc1ccccc1` (centres unmarked) [Compound 117], which PDI [1, 7] is on record?
A: 0.07

Q: And the Size [1, 7]?
A: 61.6 nm

Q: And the PDI [1, 16]?
A: 0.071

Q: What about the Size ([1]; Table 3, LNP lipid:DSPC:Cholesterol:DMG-PEG2k 50:10:38.5:1.5 mol %, hEPO mRNA, N:P 6) of the same molecule?
A: 70.6 nm

Q: What about the PDI [1, 17] of the same molecule?
A: 0.204

Q: And the Size [1, 17]?
A: 56.4 nm

Q: What about the PDI [1, 18] of the same molecule?
A: 0.354

Q: And the Size [1, 18]?
A: 67.8 nm

Q: What about the PDI [1, 19] of the same molecule?
A: 0.119

Q: And the Size [1, 19]?
A: 75.7 nm

Q: And the PDI [1, 20]?
A: 0.134

Q: And the PDI [1, 21]?
A: 0.365

Q: And the Size [1, 21]?
A: 65.3 nm

Q: And the PDI [1, 22]?
A: 0.515

Q: And the Size [1, 22]?
A: 67.8 nm

Q: What about the PDI [1, 23] of the same molecule?
A: 0.089

Q: And the Size [1, 23]?
A: 125 nm

Q: What about the PDI [1, 24] of the same molecule?
A: 0.018

Q: And the Size [1, 24]?
A: 123 nm

Q: What about the PDI [1, 25] of the same molecule?
A: 0.263

Q: What about the Size [1, 25] of the same molecule?
A: 55 nm

Q: And the Size ([1]; Table 4, LNP Lipid:DSPC:Cholesterol:DMG-PEG2k 50:10:38.5:1.5 mol %, hEPO mRNA, N:P 6)?
A: 62.2 nm

Q: And the Zeta potential [2, 8]?
A: −5.265 mV

Q: What about the Zeta potential ([2]; Table 4, LNP 40:10:48.5:1.5 mol %, N:P 6) of the same molecule?
A: −0.6716 mV

Q: And the Zeta potential ([2]; Table 4, LNP 40:10:48.5:1.5 mol %, N:P 9)?
A: −1.95 mV

Q: And the Zeta potential ([2]; Table 4, LNP 40:10:48.5:1.5 mol %, N:P 12)?
A: −3.302 mV

Q: And the Zeta potential ([2]; Table 4, LNP 50:10:38.5:1.5 mol %, N:P 6)?
A: −4.369 mV

Q: What about the Zeta potential ([2]; Table 4, LNP 50:10:38.5:1.5 mol %, N:P 9) of the same molecule?
A: −2.051 mV

Q: And the Zeta potential ([2]; Table 4, LNP 50:10:38.5:1.5 mol %, N:P 12)?
A: −4.408 mV

Q: And the Zeta potential ([2]; Table 4, LNP 60:0:38.5:1.5 mol %, N:P 6)?
A: −5.393 mV

Q: And the Zeta potential ([2]; Table 4, LNP 60:0:38.5:1.5 mol %, N:P 9)?
A: −5.043 mV

Q: And the Zeta potential ([2]; Table 4, LNP 60:0:38.5:1.5 mol %, N:P 12)?
A: −5.125 mV

Q: What about the “Encapsulation Efficiency %” value [3, 7] of the same molecule?
A: 96.7%

Q: And the “Encapsulation Efficiency %” value [3, 16]?
A: 95.1%

Q: What about the “Encapsulation Efficiency %” value [3, 17] of the same molecule?
A: 87.7%

Q: And the “Encapsulation Efficiency %” value [3, 18]?
A: 98%

Q: And the “Encapsulation Efficiency %” value [3, 19]?
A: 98.3%

Q: What about the “Encapsulation Efficiency %” value [3, 20] of the same molecule?
A: 96.3%

Q: What about the “Encapsulation Efficiency %” value [3, 21] of the same molecule?
A: 98.6%

Q: What about the “Encapsulation Efficiency %” value [3, 22] of the same molecule?
A: 98.2%

Q: And the “Encapsulation Efficiency %” value [3, 23]?
A: 90.2%

Q: And the “Encapsulation Efficiency %” value [3, 24]?
A: 92.3%

Q: And the “Encapsulation Efficiency %” value [3, 25]?
A: 94.8%

Q: With `CCCCCCCC(CCCCCCC)C(=O)OCCN(CCOC(=O)C(CCCCCCC)CCCCCCC)C(=O)CN` [Compound 604] as the molecule, how does the PDI [1, 11] read?
A: 0.102

Q: And the PDI [1, 26]?
A: 0.15

Q: What about the Size [1, 26] of the same molecule?
A: 236.6 nm

Q: What about the Size [1, 12] of the same molecule?
A: 208.5 nm

Q: What about the Zeta potential [2, 13] of the same molecule?
A: −7.347 mV

Q: What about the Zeta potential ([2]; Table 5, LNP 60:0:38.5:1.5 mol %, N:P 6) of the same molecule?
A: −3.753 mV

Q: And the “Encapsulation Efficiency %” value [3, 11]?
A: 99.3%

Q: And the “Encapsulation Efficiency %” value [3, 26]?
A: 98%

Q: Which PDI [1, 14] does the source give for `CCCCCCCCC(CCCCCC)C(=O)OCCN(CCOC(=O)C(CCCCCC)CCCCCCCC)C(=O)C(C)CCN1CCCC1.Cl` (centres unmarked) [Compound 987l] here?
A: 0.051

Q: And the “Size (nm)” value [1, 14]?
A: 76.4 nm

Q: What about the “Zeta potential (mV)” value [2, 15] of the same molecule?
A: −2.9 mV

Q: What about the “Encapsulation Efficiency %” value [3, 14] of the same molecule?
A: 95.9%

Q: For `CCCCCCCCCCC(CCCC)C(=O)OCCN(CCOC(=O)C(CCCC)CCCCCCCCCC)C(=O)C(C)N` (centres unmarked) [Compound 612], which PDI [1, 11] is on record?
A: 0.403

Q: And the Size [1, 12]?
A: 69.9 nm

Q: And the Zeta potential [2, 13]?
A: −3.371 mV

Q: What about the “Encapsulation Efficiency %” value [3, 11] of the same molecule?
A: 99.8%
